The values below come from patent publication US20230277490A1, “GLUTAMINE AS AN ANTICANCER THERAPY IN SOLID TUMORS” (CEDARS-SINAI MEDICAL CENTER, priority 2020, published 2023).

pIC50: −log10 of the molar value.

For series [1], the system named is Mia PaCa-2 cells. Briefly: Antitumor efficacy of L-Gln supplementation and CB-839 in vitro (FIG. 7). It counts as cell-based. The settings on record: for antitumor efficacy: single agent, Mia PaCa-2 cells in vitro.
A further series deals with PDAC mouse models. The conditions noted are these: in vivo; cited from earlier work.
In series [2] the test system is Mia PaCa-2 cells. Briefly: Intracellular sodium by sodium green fluorescence intensity. The format is cell-based. The settings on record: MIA PaCa-2 cells in vitro; L-Gln 40 mM, D-Gln high dose.
In series [3] the test system is PDAC cells. Briefly: PDAC cell growth / cell death in vitro. The format is cell-based. The conditions noted are these: D-Gln high dose.
Series [4] concerns pancreatic cancer cells. Kind of series: Metabolomic mass spectrometric analysis of metabolite levels. The format is cell-based, human. The procedure: We tested how elevated glutamine affects gemcitabine efficacy. […] We next tested the metabolic impact of super-physiologic glutamine concentration (40 mM) on the gemcitabine response (0.5 μM) of pancreatic cancer cells through standard metabolomic mass spectrometric analysis. The heat map in FIG. 3 illustrates the differential metabolite accumulation with glutamine and gemcitabine treatment, as single agent and in combination. There were a number of metabolic changes that were only observed with the combination treatment. […] Importantly, high glutamine administration would reduce the concentration of gemcitabine required to cause significant cancer cell death.

Series [5] has as its system PDAC cells. The format is cell-based. From the text: As L-Gln supplementation enhances the efficacy of chemotherapy, we tested whether L-Gln can lower the effective dose of gemcitabine.
The subject of series [6] is PDAC cells. Briefly: Glutamine supplementation with increasing concentrations of gemcitabine in PDAC cells. The format is cell-based. From the text:
The ability of L-Gln supplementation to […] intracellular nucleotide stores makes it an attractive agent to pair with gemcitabine, a standard chemotherapy used in the treatment of PDAC patients whose activity is also based on its ability to inhibit DNA synthesis.
We show herein that glutamine deprivation through glutaminase inhibition increases cancer cell survival and potentiates resistance to gemcitabine in PDAC cells.

Series [7] deals with pancreatic cancer cells. Kind of series: Basal metabolic rate and mitochondrial proton leakage of pancreatic cancer cells. The format is cell-based, human.
The test system of series [8] is Pancreatic cancer cells (MIAPaCa human cell line). Briefly: Relative cell number / gemcitabine dose response with glutamine. It counts as cell-based. The settings on record: for pIC50: Homo sapiens, MIAPaCa cells.
In series [9] the test system is pancreatic cancer cells. Kind of series: DNA damage accumulation. The format is cell-based, human. The conditions noted are these: combination of glutamine and gemcitabine over either single agent.
For series [10] the following is noted: enteral glutamine, 47 prospective trials, over 1600 adult patients; cited from earlier work.
Another series relates to melanoma tumor. The settings on record: dietary supplementation; cited from earlier work.
For series [11] the following is noted: at 23° C.; cited from earlier work.
[12] abbreviates: combination 40 mM glutamine and 0.5 μM gemcitabine.

For orientation: pIC50 means the IC50 on a negative log10 scale, so that one unit is a factor of ten.

For the molecule `O=C(Cc1cccc(OC(F)(F)F)c1)Nc1ccc(CCCCc2nnc(NC(=O)Cc3ccccn3)s2)nn1` [CB-839], the antitumor efficacy result with Mia PaCa-2 cells [1] is recorded as “some antitumor efficacy”. Further, the “efficacy in PDAC mouse models” value in the series with PDAC mouse models was “failed”.

For `C[C@@H]1O[C@@H](O[C@H]2C[C@@H](O)[C@]3(CO)[C@H]4[C@H](O)C[C@]5(C)[C@@H](C6=CC(=O)OC6)CC[C@]5(O)[C@@H]4CC[C@]3(O)C2)[C@H](O)[C@H](O)[C@H]1O` [Ouabain], the intracellular sodium entry in the series with Mia PaCa-2 cells [2] was “leads to build up of intracellular sodium”. In the series with PDAC cells [3], the “PDAC cell growth / cell death” value is recorded as “greater PDAC cell death”.

For the molecule `NC(=O)CC[C@H](N)C(=O)O` [L-Gln, L-glutamine], the “antitumor efficacy over time” value in the series with Mia PaCa-2 cells [1] (40 mM L-Gln compared to control 2 mM L-Gln) is given as “consistently better with antitumor efficacy”. Besides, in the series with Mia PaCa-2 cells [1] (L-Gln together with CB-839), the “antitumor activity under glutaminase inhibition” value was “occurred independently of glutaminase inhibition with CB-839”. Also, the antitumor efficacy entry with Mia PaCa-2 cells [1] is “greater antitumor activity”. The intracellular sodium result with Mia PaCa-2 cells [2] is recorded as “increases intracellular sodium levels”. For the same molecule, in the series with pancreatic cancer cells [4] (40 mM L-Gln), the “TCA cycle metabolite levels” value is “did not affect the majority of TCA cycle metabolites”. For the same molecule, the “intracellular essential and conditionally amino acids” value in the series with pancreatic cancer cells [4] (40 mM compared to 2 mM L-Gln, PDAC cells in vitro) is reported as “significantly depleted”. The intracellular nucleotide stores entry with pancreatic cancer cells [4] (40 mM compared to control 2 mM L-Gln) was “significantly depleted”. In the series with PDAC cells [5], the “colony formation with 5-FU” value is given as “as effective or even more effective than 5-FU at 0.1 uM”. In addition, the “colony formation with gemcitabine” value in the series with PDAC cells [5] (20 mM L-Gln plus gemcitabine) is “can enhance the efficacy gemcitabine”. Further, the “colony formation with paclitaxel” value in the series with PDAC cells [5] (high-dose L-Gln plus paclitaxel) is given as “enhances the efficacy of paclitaxel”. In addition, the “antitumor effects of gemcitabine” value with PDAC cells [6] (L-Gln 40 mM compared to 2 mM, several PDAC cell lines) is listed as “consistently enhanced the antitumor effects of gemcitabine”.

On to `Nc1ccn([C@@H]2O[C@H](CO)[C@@H](O)C2(F)F)c(=O)n1` [gemcitabine], for which, in the series on pancreatic cancer cells [7] (gemcitabine alone), the basal metabolic rate result was “elevated” and the mitochondrial proton leakage entry is listed as “induced”. For the same molecule, the pIC50 in series [8] (MIA PaCa-2, in the presence of 2 mM glutamine (physiologic concentration)) was 6.18. The molecule further showed a negative logarithm of the IC50 (pIC50) in [8] (MIA PaCa-2, with 40 mM glutamine (super-physiologic concentration)) of 6.75.

With `NC(=O)CC[C@H](N)C(=O)O` [glutamine], the “mitochondrial proton leakage induced by gemcitabine” value in the series on pancreatic cancer cells [7] (additional glutamine treatment) is on record as “reduced”. Also, in the series on pancreatic cancer cells [7] (combination of 40 mM glutamine and 0.5 μM gemcitabine), the basal metabolic rate entry is on record as “further elevated still”. Besides, in the series on pancreatic cancer cells [4] (setting [12]), the free nucleotides entry was “accumulation of free nucleotides”; the “vitamin C and SAM levels” value was “accumulation of vitamin C and S-adenosine methionine (SAM)”. Further, the cell death entry in series [8] (combination of elevated concentrations of glutamine and gemcitabine compared to either alone) was “dramatic increase in cell death”. Further, the “PDAC cell death with increasing concentrations of gemcitabine” value in the series on PDAC cells [6] (glutamine supplementation) was “enhancement of PDAC cell death”. The “cancer cell viability with increasing concentrations of gemcitabine” value in the series on PDAC cells [6] (glutamine supplementation in the face of glutaminase inhibition) is “decreased cancer cell viability”. Moreover, the sensitivity to gemcitabine entry with PDAC cells [6] (glutamine supplementation, even in the face of glutaminase inhibition) was “enhances sensitivity to gemcitabine”. Further, the DNA damage result in the series on pancreatic cancer cells [9] was “greater DNA damage accumulation”. In addition, in [10], the tolerability entry was “well-tolerated”. The melanoma tumor growth entry in the series on melanoma tumor was “can inhibit melanoma tumor growth”. In addition, in series [11], the solubility was 3.6%.
